A melting point compilation (Tetko et al.; mined from patent text by program, amines drawn as free bases though some values may be those of a salt)

melting point	Structure (SMILES)
166 to 167 °C	CN(C(=O)OC(C)(C)C)c1cc(Oc2ccc(-c3ccccc3)cc2)ccc1[N+](=O)[O-]
117 to 118 °C	CCOC(=O)c1cc2c(nc1C)C(=Cc1cccs1)CCC2
66 to 68 °C	CNc1ccccc1C(=O)c1ccccc1
124 to 126 °C	CC(=O)NCCn1ccc2c1-c1cccc(Cl)c1CC2
68 to 70 °C	CCOC(=O)C1=C(C)NC(C)=C(C(=O)OCC)C1c1csc2ccc(Br)cc12
149 to 151 °C	COCc1ncccc1CN(CCn1ccc2occc2c1=O)Cc1ccc2c(c1)NC(=O)C(C)(C)C(=O)N2CC(C)C
193 to 194 °C	O=C1c2c(O)cccc2C(c2ccccc2)c2cccc(O)c21
234 to 235 °C	S=c1ncc2ccccc2[nH]1
128 °C	O=C1CCC(O)(c2ccc(Cl)c(Cl)c2)CN1Cc1ccccc1 (stereo not given)
130 to 131 °C	Clc1cc2c(cc1Cl)C(Cl)Cc1ccccc1S2 (stereo not given)
97 to 98 °C	C[C@H]1CCCN(C(=O)Cc2ccc(Cl)c(Cl)c2)[C@H]1C=O (relative stereo)
198 to 200 °C	CCOc1nc(NCc2ccncc2)nc(Nc2ccc3cc[nH]c3c2)n1
120 to 122 °C	CC(C)Oc1cc(CCCOc2ccc3ccccc3c2CC(=O)O)n(Cc2ccc(Cl)cc2Cl)n1
165 °C	NS(=O)(=O)c1ccc(Nc2nc(OCC3CC=CCC3)c3nc[nH]c3n2)cc1 (stereo not given)
147 to 148 °C	CNC(=O)c1cccc(NC(=O)Cc2cccc(F)c2)c1
278 to 280 °C	O=c1[nH]c(=O)n2c3c(cccc13)Sc1ccc(C(F)(F)F)cc1-2
135 to 137 °C	O=C(O)Cc1cccc(Cn2cc(C3c4ccccc4C=Cc4ccccc43)c(=S)[nH]c2=O)c1
> 210 °C	O=C(O)c1cc(NCc2ccc(F)cc2)ccc1O
305 to 308 °C	COc1ccc(-c2nnc3c4ccccc4c(Nc4cccc(-c5nn[nH]n5)c4)nn23)cc1
205 to 210 °C	CC1(C)Cc2nc3ccccc3n2C(=O)N1
185 °C	Cc1ccc(C)n1-c1nc(S(=O)(=O)Nc2cccc(Cl)c2Cl)n[nH]1
162 to 163 °C	COC(=O)C1=C(C)NC(=O)N(C(=O)OC(C)C)C1c1cccc(Cl)c1Cl (stereo not given)
102 to 103 °C	O=C(CCC=C(c1ccccc1)c1ccccc1)NCCCCn1ccnc1

melting point	Structure (SMILES)
138 to 141 °C	COc1nc2cc([N+](=O)[O-])c(C)c(C(=O)N(C)C)c2nc1OC
192 °C	CCCCSc1nc(CCC)n(Cc2ccc(-c3ccccc3S(=O)(=O)NC(=O)NCc3ccccc3)cc2)c1C(=O)C(=O)O
214 to 216 °C	Nc1n[nH]cc1-c1cccc(N2CCC(N3CCCC3)CC2)c1
177 to 178 °C	O=C(O)Cc1cc2c(c([N+](=O)[O-])c1)NC(C(F)(F)F)CC2 (stereo not given)
208 to 211 °C	CCCCc1oc2ccccc2c1C(=O)NCc1ccc2c(-c3ccc(Cl)cc3)c(OCc3nnn[nH]3)ccc2c1
128 to 130 °C	Cc1oc(-c2ccccc2)nc1COc1ccc(COc2cncc(CO)c2)cc1
219 to 221 °C	CCCc1nn(C)c2c(=O)[nH]c(-c3cc(/C=C/C(=O)N(C)C)ccc3OCC)nc12
151 to 156 °C	C[C@H]1N(C(=O)c2ccc(C(F)(F)F)cc2)CC(F)O[C@@]1(Cn1cncn1)c1ccc(Cl)cc1Cl (relative stereo)
197 to 199 °C	Nc1sc(-c2cccs2)c(CN(C2CCCCC2)C2CCCCC2)c1C(=O)c1ccc(Cl)cc1
188 °C	Nc1ncnc2c1c(-c1ccc(Oc3ccccc3)cc1)cn2S(=O)(=O)C1CCCC1
129 to 131 °C	CCOC(=O)c1cn(CC)c2ncnn2c1=O
34 to 36 °C	Cc1ccc(N2CCN(c3cccc(Cl)c3)C2C(Cl)(Cl)Cl)cc1 (stereo not given)
93 to 95 °C	CCCCN1CCCC1=NC(=O)Nc1c(C)cccc1C
47 to 50 °C	CCCCCCCCCCCCCCCCCC[N+](=O)[O-]
156 to 158 °C	CN1CCN(S(=O)(=O)c2cc(-c3csc(=Nc4ccccc4)n3C)ccc2Cl)CC1
148 °C	O=S1(=O)NC(c2cccc(F)c2)c2ccccc21 (single isomer, unassigned; (+))
184 °C	COc1cc(N)c(Cl)cc1C(=O)N[C@H]1CCNC[C@H]1OC (relative stereo)
104 to 106 °C	Cc1c(Cl)sn(-c2ccc(Cl)cc2)c1=O
260 to 261 °C	COc1ccc(C(=O)Nc2ccccc2)cc1NS(=O)(=O)c1sc(NC(C)=O)nc1C
114 to 115 °C	CCN(CC)c1ncnc2c1ncn2C1CC(F)C(CO)O1 (stereo not given)
187 to 192 °C	COc1cc2c(c(Cl)c1Cl)C(=O)C(c1ccccc1)C2 (stereo not given)
182 to 184 °C	C[C@H](O)Cn1c(=O)c(Oc2ccc(F)cc2F)cc2cnc(N[C@@H](C)CO)nc21
97 to 98 °C	CC(C)c1c(C=O)c(-c2ccc(F)cc2)n2ccccc12

melting point	Structure (SMILES)
209 °C	CC(C)(C)c1cc(/C=C(\C#N)C(=O)NCCCc2ccccc2)cc(C(C)(C)C)c1O
119 to 121 °C	CC(C)(CCl)C(=O)N(O)Cc1ccccc1Br
125 to 140 °C	CCCCN(CCCC)c1ccc(C=CC=Cc2ccc(C=CC3=C(C#N)C(=C(C#N)C#N)OC3(c3ccccc3)C(F)(F)F)s2)c(OC)c1 (stereo not given)
147 to 148 °C	COc1ccc(-c2ccc(-c3ccccc3Cl)n2Cc2cccc(N)n2)cc1
235 °C	NS(=O)(=O)c1nc2ccc(OC(=O)C=Cc3ccccc3)cc2s1
88 to 89 °C	CC(C)N1C(=O)N(c2ccccc2Cl)CSC1=NC(C)(C)C
154 to 158 °C	CCOC(=O)N1CCC(c2ccc3nc(-c4ccc(S(C)(=O)=O)cc4F)oc3c2)CC1
226 to 228 °C	O=C1CC2(CN1)CC(=O)c1cc(Cl)cc(Cl)c12 (stereo not given)
196 °C	Oc1cccc(C=C2c3ccccc3Cc3ccccc32)c1
98 to 100 °C	C#CC(C)(C)c1cc(N)no1
117 to 120 °C	CCCCc1c(C(=O)OCC)cc(O)c2ccccc12
> 320 °C	O=c1c2c(Cc3cccc([N+](=O)[O-])c3)n[nH]c2c2cccnc2n1-c1ccccc1
153 °C	O=C(NCCN1CCC(O)(c2ccc(Cl)cc2)CC1)c1cccs1
220 °C	NC(=O)c1[nH]cnc1OC(=O)c1ccc(Cl)cc1
109 to 110 °C	CCCCCCCCCCC[C@@H](O)CC(=O)OCC(=O)c1ccc(Br)cc1
204 °C	CC(=O)OC1CSC(Oc2ccc(-c3ccc(Cl)nc3)nc2)C(OC(C)=O)C1OC(C)=O (stereo not given)
77 to 78 °C	O=[N+]([O-])c1ccc(S)c(Cl)c1
141 to 143 °C	O=C(c1ccc(F)cc1)C1CCN(CCn2c(=O)[nH]c3ccsc3c2=O)CC1
149 to 152 °C	O=C(c1cccs1)c1cnn2c(-c3cccc(NCc4ccc(Cl)cc4)c3)ccnc12
148 to 150 °C	c1ccc(N2CCN(Cc3n[nH]c4ccccc34)CC2)nc1
70 to 71 °C	NS(=O)(=O)c1ccc(CO)s1

Structure (SMILES)	melting point
CC(=O)N1N=C(c2ccc(N)cc2)c2cc(Cl)ccc2CC1C (stereo not given)	187 to 189 °C
COc1ccc2c(C(=O)C3CSC(c4cccnc4)N3)c[nH]c2c1 (stereo not given)	86 to 88 °C
CN1CCN(C2CC3C4CCC5CC6OC6CC5(C)C4CCC3(C)C2=O)CC1 (stereo not given)	132 to 134 °C
